Data: patent US8426415B2, “Human ADAM-10 inhibitors” (Symphony Evolution, Inc., priority 2007, dated 2013)

Assay: stability in solution of the free hydroxamic acid (observed during purification)
Format: physicochemical
Details: degradation during lengthy column elution and solvent evaporation on pilot scale
Description: The purity of hydroxycarbamoylpiperazine of formula VIII obtained after part (i) ranged from 84% to 92%. The observed yields were between 63% and 78%. This hydroxycarbamoylpiperazine was of insufficient purity to produce pure magnesium salt/complex of formula VI suitable for pharmaceutical use. The direct conversion of hydroxycarbamoylpiperazine of formula VIII to the magnesium salt/complex of formula VI by omitting parts (ii) and (iii) yielded the magnesium salt/complex with the purity ranging from 96% to 97%. We discovered that this problem could be solved by first obtaining and separating a benzhydrylpiperazine complex of formula IX prior to the conversion to the magnesium salt/complex of […]. Yields for the process that included parts (i)-(iv) ranged from 81% to 86%. The purity of the magnesium salt/complex of […] was at least 99%; specifically, between 99.4% and 99.7%.

Compound: COCCOC(=O)N1CCN(S(=O)(=O)c2cc(F)c(Oc3ccc(Cl)cc3)c(F)c2)[C@@H](C(=O)NO)C1 [formula VIII, 4-(4-(4-chlorophenoxy)-3,5-difluorophenylsulfonyl)-3-(hydroxycarbamoyl)piperazine-1-carboxylic acid, (R)-2-methoxyethyl ester]
- stability in solution: poor stability in solution
